These results are taken from patent publication US20240262844A1, “PYRIDINIUM SALTS AND METHODS OF USE” (UNIVERSITY OF WYOMING, priority 2023, published 2024).

Molecules are shown by their SMILES. Where a name gives a salt, the structure may show the parent alone.

In one test the target is T1, PARP1 (Homo sapiens, UniProt P09874).
T1 construct: endogenous in cells; host or cells: HEK293T
Kind of test: In-situ labeling and enrichment of PARP1 in HEK293T cells (MS-MS, Western). In kind it is cell-based. As for the experimental part: (§1) Cell culture and in-situ tryptophan probe treatment: Cell lines were cultured at 37° C. with 5% C02. Human embryonic kidney 293 cells expressing a mutant version of the SV40 large T antigen (HEKT293T cells) were grown in Dulbecco's Modified Eagle Medium (DMEM, Gibco) supplemented with 10% fetal bovine serum and 1% penicillin/streptomycin. For in-situ labeling, cells were grown to 90% confluence, washed with Dulbecco's phosphate buffered saline (DPBS), treated with 100x stocks of the tryptophan probes (the pyridinium salts) in OptiMem (GibCo) to generate final concentrations (0 μM, 1 μM, 10 μM, and 100 μM) in 1% dimethylsulfoxide (DMSO). Cells were incubated for 1 hour at 37° C. with 5% C02 followed by photo-activation at the respective wavelengths for 20 minutes at 4° C. Cells were harvested with a cell scraper, washed 3× with DPBS, and pellets were stored at −80° C. until further use. […]
(§2) In-situ tryptophan probe sample processing for peptide-level characterization: Cell pellets were lysed via sonication (QSonica) at 50% amplitude, 2 seconds ON, 3 seconds OFF, 30 seconds in 40 mM HEPES pH 7.5 (4-(2-hydroxyethyl)-1-piperazineethanesulfonic acid), 1.5 mM magnesium chloride (MgCl2), 1% Sodium dodecyl sulfate (SDS), 0.8% NP-40 (also known as nonyl phenoxypolyethoxylethanol), and 1x protease inhibitors (Thermo). Protein concentration was determined by BCA (Pierce). […]

A further test concerns the target T2, NPM1 (Homo sapiens, UniProt P06748).
T2 construct: endogenous in cells; host or cells: HEK293T
Kind of test: In-situ labeling and enrichment of NPM1 in HEK293T cells (MS-MS, Western). In kind it is cell-based. As for the experimental part: as §1, §2
In-situ tryptophan probe sample processing for protein-level identification: Cell pellets were lysed via sonication (QSonica) at 50% amplitude, 2 seconds ON, 3 seconds OFF, 30 seconds in 50 mM HEPES pH 7.5, 1.5 mM MgCl2, 1% SDS, 0.8% NP-40, and 1x protease inhibitors (Thermo). Protein concentration was determined by BCA (Pierce). […]

[1] abbreviates: chemoproteomic profiling, HEK293T cells.
Where [2] appears, read: cultures irradiated with blue light in the presence of probe, protein-level enrichment.

T2 sequence (P06748 whole entry): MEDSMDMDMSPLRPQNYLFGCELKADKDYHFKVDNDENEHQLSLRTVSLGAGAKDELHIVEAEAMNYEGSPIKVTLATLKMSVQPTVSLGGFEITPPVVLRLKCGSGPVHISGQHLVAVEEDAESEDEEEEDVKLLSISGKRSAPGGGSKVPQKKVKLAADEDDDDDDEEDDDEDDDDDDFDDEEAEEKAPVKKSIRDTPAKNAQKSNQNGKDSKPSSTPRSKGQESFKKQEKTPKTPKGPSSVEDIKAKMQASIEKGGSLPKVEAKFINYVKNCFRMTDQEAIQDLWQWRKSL
T1 sequence (P09874 whole entry): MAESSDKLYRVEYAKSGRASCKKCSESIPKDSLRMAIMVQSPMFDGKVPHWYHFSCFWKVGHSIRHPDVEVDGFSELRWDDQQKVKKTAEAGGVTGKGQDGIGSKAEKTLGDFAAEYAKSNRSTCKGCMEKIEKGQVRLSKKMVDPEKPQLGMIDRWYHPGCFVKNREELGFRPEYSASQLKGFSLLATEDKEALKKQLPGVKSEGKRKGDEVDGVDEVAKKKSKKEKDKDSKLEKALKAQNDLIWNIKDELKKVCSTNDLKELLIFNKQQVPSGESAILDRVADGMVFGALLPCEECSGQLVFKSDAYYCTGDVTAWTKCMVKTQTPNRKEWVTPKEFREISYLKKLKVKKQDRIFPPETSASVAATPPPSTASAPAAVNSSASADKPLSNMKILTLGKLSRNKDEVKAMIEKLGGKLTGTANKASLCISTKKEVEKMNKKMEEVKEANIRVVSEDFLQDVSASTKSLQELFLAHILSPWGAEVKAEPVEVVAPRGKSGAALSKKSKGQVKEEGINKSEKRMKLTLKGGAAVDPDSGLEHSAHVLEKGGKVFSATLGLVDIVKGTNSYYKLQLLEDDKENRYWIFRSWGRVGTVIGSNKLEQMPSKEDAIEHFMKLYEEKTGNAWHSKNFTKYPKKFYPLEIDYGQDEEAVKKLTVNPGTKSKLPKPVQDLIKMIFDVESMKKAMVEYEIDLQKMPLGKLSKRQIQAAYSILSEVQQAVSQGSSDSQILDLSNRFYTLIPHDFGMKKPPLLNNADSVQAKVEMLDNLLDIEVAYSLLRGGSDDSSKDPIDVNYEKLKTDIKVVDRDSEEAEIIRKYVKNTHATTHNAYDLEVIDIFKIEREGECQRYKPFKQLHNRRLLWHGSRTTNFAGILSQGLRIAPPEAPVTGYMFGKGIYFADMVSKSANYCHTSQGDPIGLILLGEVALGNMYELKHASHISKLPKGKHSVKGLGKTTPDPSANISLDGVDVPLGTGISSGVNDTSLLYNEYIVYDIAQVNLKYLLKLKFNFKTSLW

As for `COc1ccc2cc(-c3cc(C)[n+](N(C)C(=O)OCCCCCCN=[N+]=[N-])c(C)c3)ccc2c1` [Pyridinium salt 2d, 1-((((6-azidohexyl)oxy)carbonyl)(methyl)amino)-4-(6-methoxynaphthalen-2-yl)-2,6-dimethylpyridin-1-ium tetrafluoroborate], on PARP1 (setting [1]), the “modified and dose-dependently enriched tryptophan residues” value is “Trp79 and Trp318”. Besides, the “PARP1 in enriched protein mixture (Western analysis)” value on PARP1 (setting [2]) is on record as “found to contain both proteins”. At NPM1 (setting [1]), the “in-situ labeled tryptophan residue” value was “Trp290” and the “labeling of Trp288” value is recorded as “not labeled”. Further, on NPM1 (setting [2]), the “NPM1 in enriched protein mixture (Western analysis)” value was “found to contain both proteins”.
